l = locked nucleic acid (LNA); d = 2'-deoxy (DNA)
System: mCD39 mRNA
Assay: mCD39 mRNA knockdown efficacy screen in A20 cells (single dose, gymnotic delivery, QuantiGene Singleplex)
Type: cell-based, mouse
Conditions: 10 μM, three days, normalized to HPRT1
Experimental: FIG. 14-1 and 14-2 show mCD39 mRNA knockdown efficacy of mCD39 antisense oligonucleotides in the murine cancer cell line A20 (mouse B cell lymphoma). A20 cells were treated with a single dose of 10 μM of the respective antisense oligonucleotide. As negative control, cells were treated with neg1, an antisense oligonucleotide having the sequence CGTTTAGGCTATGTACTT (SEQ ID NO:99). Residual mCD39 mRNA expression relative to untreated cells is depicted. Expression values were normalized to expression of the housekeeping gene HPRT1.
In order to analyze the efficacy of mCD39 antisense oligonucleotides with regard to the knockdown of mCD39 mRNA expression in a cancer cell line, A20 (mouse B cell lymphoma, ATCC) cells were treated with a single dose (concentration: 10 μM without addition of any transfection reagent; this process is called gymnotic delivery) of the respective antisense oligonucleotide as indicated in FIG. 14. As control, cells were treated with neg1, an antisense oligonucleotide having the sequence CGTTTAGGCTATGTACTT (SEQ ID NO:99). mCD39 and HPRT1 mRNA expression was analyzed after three days using the QuantiGene Singleplex assay (Affymetrix) and mCD39 expression values were normalized to HPRT1 expression values.

Substance	Relative mCD39 mRNA expression (compared to non-treated cells)
+C*+G*+T*T*G*C*T*G*T*C*T*T*T*+G*+A*+T (antisense CGTTGCTGTCTTTGAT; sugars from the 5' end l3 d10 l3, all phosphorothioate, methylation of C not given here) [A04018MR]	0.18
+C*+C*+T*A*G*T*T*G*T*G*T*A*+T*+A*+C (antisense CCTAGTTGTGTATAC; sugars from the 5' end l3 d9 l3, all phosphorothioate, methylation of C not given here) [A04008MR]	0.58
+G*+C*+C*C*A*G*C*A*G*A*T*A*G*+T*+T*+A (antisense GCCCAGCAGATAGTTA; sugars from the 5' end l3 d10 l3, all phosphorothioate, methylation of C not given here) [A04012MR]	0.78
+T*+C*+G*T*A*G*T*C*T*C*C*A*G*T*+G*+C*+C (antisense TCGTAGTCTCCAGTGCC; sugars from the 5' end l3 d11 l3, all phosphorothioate, methylation of C not given here) [A04027MR]	0.03
+A*+G*+C*A*T*T*T*T*G*G*C*A*T*+C*+A*+C (antisense AGCATTTTGGCATCAC; sugars from the 5' end l3 d10 l3, all phosphorothioate, methylation of C not given here) [A04020MR]	0.06
+T*+G*+G*C*A*C*T*G*T*T*C*G*T*+A*+G*+T (antisense TGGCACTGTTCGTAGT; sugars from the 5' end l3 d10 l3, all phosphorothioate, methylation of C not given here) [A04015MR]	0.32
+A*+G*+T*T*A*T*A*G*C*C*T*T*G*+C*+A*+G (antisense AGTTATAGCCTTGCAG; sugars from the 5' end l3 d10 l3, all phosphorothioate, methylation of C not given here) [A04017MR]	0.07
+G*+A*+C*C*T*T*T*C*A*C*T*T*G*G*C*A*+T (antisense GACCTTTCACTTGGCAT; sugars from the 5' end l3 d13 l1, all phosphorothioate, methylation of C not given here) [A04023MR]	0.03
+T*+A*+C*A*T*T*T*C*T*T*A*C*T*C*+G*+T*+T (antisense TACATTTCTTACTCGTT; sugars from the 5' end l3 d11 l3, all phosphorothioate, methylation of C not given here) [A04033MR]	0.12
+G*+T*+T*A*T*A*G*C*C*T*T*G*+C*+A*+G (antisense GTTATAGCCTTGCAG; sugars from the 5' end l3 d9 l3, all phosphorothioate, methylation of C not given here) [A04006MR]	0.06
+C*+C*+T*A*G*T*T*G*T*G*T*A*T*+A*+C*+T (antisense CCTAGTTGTGTATACT; sugars from the 5' end l3 d10 l3, all phosphorothioate, methylation of C not given here) [A04021MR]	0.35
+A*+G*+T*A*A*T*C*C*A*C*C*C*+A*+T*+A (antisense AGTAATCCACCCATA; sugars from the 5' end l3 d9 l3, all phosphorothioate, methylation of C not given here) [A04001MR]	0.02
+T*+T*+C*G*T*A*G*T*C*T*C*C*A*G*+T*+G*+C (antisense TTCGTAGTCTCCAGTGC; sugars from the 5' end l3 d11 l3, all phosphorothioate, methylation of C not given here) [A04028MR]	0.02
+G*+G*+T*A*C*T*T*C*T*C*C*T*T*+T*+A*+C (antisense GGTACTTCTCCTTTAC; sugars from the 5' end l3 d10 l3, all phosphorothioate, methylation of C not given here) [A04016MR]	0.17
+G*+T*+T*C*G*T*A*G*T*C*T*C*+C*+A*+G (antisense GTTCGTAGTCTCCAG; sugars from the 5' end l3 d9 l3, all phosphorothioate, methylation of C not given here) [A04003MR]	0.07
+C*+C*+C*A*G*C*A*G*A*T*A*G*T*T*+A*+A*+T (antisense CCCAGCAGATAGTTAAT; sugars from the 5' end l3 d11 l3, all phosphorothioate, methylation of C not given here) [A04024MR]	0.35

Substance	Relative mCD39 mRNA expression (compared to non-treated cells)
+G*+T*+A*C*A*G*G*T*T*G*G*T*G*+T*+G*+A (antisense GTACAGGTTGGTGTGA; sugars from the 5' end l3 d10 l3, all phosphorothioate, methylation of C not given here) [A04009MR]	0.89
+G*+C*+C*C*A*G*C*A*G*A*T*A*G*T*+T*+A*+A (antisense GCCCAGCAGATAGTTAA; sugars from the 5' end l3 d11 l3, all phosphorothioate, methylation of C not given here) [A04025MR]	0.35
+A*+C*+A*T*T*T*C*T*T*A*C*T*C*+G*+T*+T (antisense ACATTTCTTACTCGTT; sugars from the 5' end l3 d10 l3, all phosphorothioate, methylation of C not given here) [A04022MR]	0.20
+G*+G*+T*G*G*C*A*C*T*G*T*T*+C*+G*+T (antisense GGTGGCACTGTTCGT; sugars from the 5' end l3 d9 l3, all phosphorothioate, methylation of C not given here) [A04005MR]	0.15
+T*+G*+T*T*C*G*T*A*G*T*C*T*C*C*+A*+G*+T (antisense TGTTCGTAGTCTCCAGT; sugars from the 5' end l3 d11 l3, all phosphorothioate, methylation of C not given here) [A04029MR]	0.11
+G*+C*+T*A*T*A*C*T*G*C*C*T*C*+T*+T*+T (antisense GCTATACTGCCTCTTT; sugars from the 5' end l3 d10 l3, all phosphorothioate, methylation of C not given here) [A04019MR]	0.05
+C*+A*+C*A*T*T*A*G*C*T*G*C*+A*+C*+G (antisense CACATTAGCTGCACG; sugars from the 5' end l3 d9 l3, all phosphorothioate, methylation of C not given here) [A04007MR]	0.07
+A*+T*+C*C*A*A*A*G*C*G*C*C*A*A*+A*+G*+G (antisense ATCCAAAGCGCCAAAGG; sugars from the 5' end l3 d11 l3, all phosphorothioate, methylation of C not given here) [A04026MR]	0.04
+A*+G*+A*T*C*C*A*A*A*G*C*G*C*+C*+A*+A (antisense AGATCCAAAGCGCCAA; sugars from the 5' end l3 d10 l3, all phosphorothioate, methylation of C not given here) [A04013MR]	0.06
+C*+C*+A*C*T*T*G*T*A*G*A*T*G*+T*+A*+C (antisense CCACTTGTAGATGTAC; sugars from the 5' end l3 d10 l3, all phosphorothioate, methylation of C not given here) [A04010MR]	0.25
+G*+G*+T*G*G*C*A*C*T*G*T*T*C*G*+T*+A*+G (antisense GGTGGCACTGTTCGTAG; sugars from the 5' end l3 d11 l3, all phosphorothioate, methylation of C not given here) [A04030MR]	0.21
+C*+G*+T*T*G*C*T*G*T*C*T*T*T*G*+A*+T*+C (antisense CGTTGCTGTCTTTGATC; sugars from the 5' end l3 d11 l3, all phosphorothioate, methylation of C not given here) [A04031MR]	0.14
+G*+A*+T*C*C*A*A*A*G*C*G*C*+C*+A*+A (antisense GATCCAAAGCGCCAA; sugars from the 5' end l3 d9 l3, all phosphorothioate, methylation of C not given here) [A04002MR]	0.06
+C*+A*+C*T*G*T*T*C*G*T*A*G*T*+C*+T*+C (antisense CACTGTTCGTAGTCTC; sugars from the 5' end l3 d10 l3, all phosphorothioate, methylation of C not given here) [A04014MR]	0.20
+C*+T*+G*T*T*C*G*T*A*G*T*C*+T*+C*+C (antisense CTGTTCGTAGTCTCC; sugars from the 5' end l3 d9 l3, all phosphorothioate, methylation of C not given here) [A04004MR]	0.17

— US11959083B2, “Immunosuppression-reverting oligonucleotides inhibiting the expression of CD39” (Secarna Pharmaceuticals GmbH & Co. KG, priority 2016, dated 2024)
